Results from patent publication US20090071883A1 (priority 2007, published 2009).

Key:
[1] = test system: Cryptosporidium parvum oocysts; details: pH 7; cited from earlier work
[2] = test system: Erwinia carotovora; format: cell-based

Row | SMILES | approximate CT values for 99% inactivation [1] | mean log cfu Erwinia carotovora [2] [log cfu]
1 | NCl [monochloramine] | ~7200 | 
2 | [O][Cl+][O-] [chlorine dioxide] | ~78 | 0.0
